Values of other authors in patent US8858953B2, “Herbal composition for treating cancer” (priority 2011, dated 2014).

Tested on: Epidermal Growth Factor Receptor (EGFR) mutation lung cancer
Conditions: lung cancer patients with EGFR mutation

Question: Which progression free survival does the source give for `C#Cc1cccc(Nc2ncnc3cc(OCCOC)c(OCCOC)cc23)c1` [Erlotinib] here?
Answer: up to 9 months
